Experimental data from patent US11834453B2, “Substituted pyrimido[5,4-d]pyrimidines as HER2 inhibitors” (Array BioPharma Inc., priority 2020, dated 2023).
pIC50: −log10 of the molar value. Read-outs that look alike come from different tables or passages of the source.

What was measured:
EGFR = EGFR (Homo sapiens (Human), UniProt P00533); assay: ErbB enzyme assay (CisBio HTRF KinEASE-TK), Assay 3; assay type: biochemical
In short: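 Inhibition is measured as reduced peptide phosphorylation by HTRF KinEASE-TK at 1 mM ATP and 250 nM substrate, 30 min at 22 °C. Values are IC50s from a 4-parameter logistic fit.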

[1] = target: ErbB2 with Exon 20 YVMA insertion (HER2-YVMA) (Homo sapiens (Human), UniProt P04626, INS775YVMA); assay: Cellular phosphorylation assay, constitutive ErbB2 phosphorylation (Y1196) in engineered NIH 3T3 cells, Assay 4; assay type: cell-based
In short: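 Engineered NIH 3T3 cells expressing HER2-YVMA treated with compounds 1 h at 37 °C, then formaldehyde-fixed and methanol-permeabilized. pErbB2 Y1196 detected by in-cell infrared immunofluorescence, normalized to GAPDH. IC50 from the normalized curves.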

MDR1 (P-gp) [2] = target: T1, MDR1 (P-gp) (Homo sapiens (Human), UniProt P08183); assay: MDR1 transfected MDCKII canine Mdr1 knockout permeability/efflux, Assay 7; conditions: dog, MDCK-MDR1
Protocol: (§1) Both MDR1 transfected LLC-PK1 (Assay 6) and MDR1 transfected MDCKII canine Mdr1 knockout cells (Assay 7) were cultured and plated according to manufacturer's recommendations with the exception that the passage media for the MDR1 transfected LLC-PK1 cell line contained only 2% fetal bovine serum so as to extend passage time out to seven days.
(§2) Both positive and negative controls were used to assess functionality of P-gp or BCRP efflux in the assays. Stock solutions for assay controls and the test article were prepared in DMSO for final test concentration of 1 μM. Final organic concentration in the assay was 1%. All dosing solutions contained 10 μM lucifer yellow to monitor MDCKII cell monolayer integrity.
(§3) For the apical to basolateral determination (A to B), 75 μL of the test article in transport buffer were added to the apical side of the individual transwells and 250 μL of basolateral media, without compound or lucifer yellow, were added to each well. For the basolateral to apical determination (B to A), 250 μL of test article in transport buffer were added to each well and 75 μL transport buffer, without compound or lucifer yellow, were added to each transwell. All tests were performed in triplicate, and each compound was tested for both apical to basolateral and basolateral to apical transport. The plates were incubated for 2 hours on a Lab-Line Instruments Titer Orbital Shaker (VWR, West Chester, PA) at 50 rpm and 37° C. with 5% CO2. All culture plates were removed from the incubator, 50 μL of media were removed from the apical and basolateral portion of each well, and added to 150 μL of 1 μM labetalol in 2:1 acetonitrile (ACN): H2O, v/v.
(§4) The plates were read using a Molecular Devices (Sunnyvale, CA) Gemini Fluorometer to evaluate the lucifer yellow concentrations at excitation/emission wavelengths of 425/535 nm. These values were accepted when found to be below 2% for apical to basolateral and 5% basolateral to apical flux across the MDR1-transfected LLC-PK1 or BCRP-transfected MDCKII cell monolayers. The plates were sealed, and the contents of each well analyzed by LC MS/MS. The compound concentrations were determined from the ratio of the peak areas of the compound to the internal standard (labetalol) in comparison to the dosing solution.
(§5) A MDS Sciex API 4000 (Applied Biosystems, Foster City, CA) mass spectrometer was used for detection of the analytes in the ion spray positive mode. Analyte responses were measured by multiple reaction monitoring (“MRM”) of transitions unique to each compound (the protonated precursor ion and selected product ions for each test article and m/z 329 to m/z 162 for labetalol, the internal standard.
(§6) The total run time, including re-equilibration, for a single injection was 1.2 minutes. […] The total run time, including re-equilibration, for a single injection was 0.61 minutes.
(§7) An efflux ratio is calculated from the mean apical to basolateral (A-B) Papp data and basolateral to apical (B-A) Papp data: Efflux ratio=Papp(B−A)/Papp(A−B)

ErbB2 WT = ErbB2 WT (Homo sapiens (Human), UniProt P04626); assay: ErbB enzyme assay (CisBio HTRF KinEASE-TK), Assay 2; assay type: biochemical
In short: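 ErbB2 phosphorylates 250 nM biotin-TK substrate at 1 mM ATP in 25 mM HEPES pH 7.4, 10 mM MgCl2, 0.01% Triton X-100 and 2% DMSO, for 30 min at 22 °C. Product is detected by HTRF with Sa-XL665 and TK-Ab-Cryptate. Percent of control is set by DMSO-only wells and pre-quenched wells.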

EGFR wild type (EGFR WT) = EGFR wild type (EGFR WT) (Homo sapiens (Human), UniProt P00533); assay: Cellular phosphorylation assay, EGF-stimulated EGFR phosphorylation in engineered NIH 3T3 cells, Phospho-EGFR DuoSet IC ELISA, Assay 5; assay type: cell-based
In short: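 NIH 3T3 cells expressing EGFR WT (20,000/well, attached overnight) were exposed to serially diluted compound for 1 h at 37 °C, then stimulated with 100 ng/ml rEGF for 10 min. Phospho-EGFR in lysates measured by sandwich ELISA optical density; IC50 from curves.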

[3] = target: ErbB2 insYVMA (HER2-YVMA, SEQ ID NO: 2) (Homo sapiens, UniProt P04626, INS775YVMA/P1170A); assay: biochemical; conditions: ErbB2 insYVMA enzyme assay; for pIC50: read-out: Assay 1 IC50; for IC50: Assay 1 IC50 (nM)
BCRP = BCRP (Homo sapiens (Human), UniProt Q9UNQ0); assay: BCRP transfected MDCKII canine Mdr1 knockout permeability/efflux, Assay 9; conditions: dog, Assay 9 Pe Ratio, efflux ratio Papp(B-A)/Papp(A-B), BCRP transfected MDCKII canine Mdr1 knockout
MDR1 (P-gp) [4] = target: T1, MDR1 (P-gp); assay: MDR1 transfected LLC-PK1 permeability/efflux, Assay 6; conditions: pig, LLC-PK1, Assay 6 Pe Ratio, efflux ratio Papp(B-A)/Papp(A-B), MDR1 transfected LLC-PK1
Protocol: as §1, §2, §3, §4, §5, §6, §7

Chain of BCRP (Q9UNQ0 whole entry): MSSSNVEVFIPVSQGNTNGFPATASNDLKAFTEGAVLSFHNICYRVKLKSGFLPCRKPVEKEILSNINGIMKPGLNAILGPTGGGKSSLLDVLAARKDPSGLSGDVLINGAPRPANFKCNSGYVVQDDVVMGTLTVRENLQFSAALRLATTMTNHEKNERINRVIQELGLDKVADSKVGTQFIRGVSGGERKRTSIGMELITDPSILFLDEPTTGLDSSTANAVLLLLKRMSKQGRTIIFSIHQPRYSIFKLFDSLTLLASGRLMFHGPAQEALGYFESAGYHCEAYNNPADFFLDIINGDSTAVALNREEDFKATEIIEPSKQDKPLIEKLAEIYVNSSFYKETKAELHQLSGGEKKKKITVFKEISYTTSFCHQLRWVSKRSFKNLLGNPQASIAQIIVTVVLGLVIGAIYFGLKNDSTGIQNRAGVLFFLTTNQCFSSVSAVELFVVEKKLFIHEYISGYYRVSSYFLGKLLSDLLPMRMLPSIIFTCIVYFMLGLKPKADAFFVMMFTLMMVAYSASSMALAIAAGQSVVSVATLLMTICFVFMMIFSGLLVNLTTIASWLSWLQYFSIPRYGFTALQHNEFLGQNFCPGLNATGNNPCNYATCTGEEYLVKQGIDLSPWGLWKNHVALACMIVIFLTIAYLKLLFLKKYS
T1 sequence (P08183 whole entry): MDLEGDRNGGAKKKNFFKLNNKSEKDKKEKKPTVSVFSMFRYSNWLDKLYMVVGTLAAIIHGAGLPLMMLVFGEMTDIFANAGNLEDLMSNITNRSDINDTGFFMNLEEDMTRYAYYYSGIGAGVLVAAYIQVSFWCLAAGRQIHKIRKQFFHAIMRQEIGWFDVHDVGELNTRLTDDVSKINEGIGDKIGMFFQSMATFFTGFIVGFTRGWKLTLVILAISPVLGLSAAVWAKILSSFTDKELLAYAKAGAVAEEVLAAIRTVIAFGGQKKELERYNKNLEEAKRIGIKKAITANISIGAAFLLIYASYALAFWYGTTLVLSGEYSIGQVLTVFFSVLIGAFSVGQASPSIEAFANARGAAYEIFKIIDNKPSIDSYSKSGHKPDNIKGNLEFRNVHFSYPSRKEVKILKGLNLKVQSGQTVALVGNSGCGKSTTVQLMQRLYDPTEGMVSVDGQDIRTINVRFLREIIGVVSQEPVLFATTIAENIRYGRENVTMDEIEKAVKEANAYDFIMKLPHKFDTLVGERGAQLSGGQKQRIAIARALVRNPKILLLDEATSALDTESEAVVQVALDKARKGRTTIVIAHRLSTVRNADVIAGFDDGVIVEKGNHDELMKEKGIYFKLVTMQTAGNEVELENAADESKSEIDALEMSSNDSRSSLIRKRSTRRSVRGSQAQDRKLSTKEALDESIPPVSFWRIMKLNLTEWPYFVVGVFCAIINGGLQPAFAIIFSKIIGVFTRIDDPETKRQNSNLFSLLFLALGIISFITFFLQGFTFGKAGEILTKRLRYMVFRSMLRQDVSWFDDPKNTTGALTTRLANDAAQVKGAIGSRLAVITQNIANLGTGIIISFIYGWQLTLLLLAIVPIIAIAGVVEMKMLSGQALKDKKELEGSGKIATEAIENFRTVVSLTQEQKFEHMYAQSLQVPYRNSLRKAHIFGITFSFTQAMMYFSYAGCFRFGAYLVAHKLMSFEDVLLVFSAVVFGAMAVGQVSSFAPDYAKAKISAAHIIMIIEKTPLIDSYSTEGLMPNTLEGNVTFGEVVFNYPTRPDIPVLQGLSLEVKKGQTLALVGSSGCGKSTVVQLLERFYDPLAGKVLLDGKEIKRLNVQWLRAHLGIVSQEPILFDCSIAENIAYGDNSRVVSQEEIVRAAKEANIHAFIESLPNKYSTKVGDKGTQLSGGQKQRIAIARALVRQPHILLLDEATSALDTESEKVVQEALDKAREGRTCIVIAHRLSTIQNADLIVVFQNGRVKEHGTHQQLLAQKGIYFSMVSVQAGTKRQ
Chain of ErbB2 WT (P04626 23-1255): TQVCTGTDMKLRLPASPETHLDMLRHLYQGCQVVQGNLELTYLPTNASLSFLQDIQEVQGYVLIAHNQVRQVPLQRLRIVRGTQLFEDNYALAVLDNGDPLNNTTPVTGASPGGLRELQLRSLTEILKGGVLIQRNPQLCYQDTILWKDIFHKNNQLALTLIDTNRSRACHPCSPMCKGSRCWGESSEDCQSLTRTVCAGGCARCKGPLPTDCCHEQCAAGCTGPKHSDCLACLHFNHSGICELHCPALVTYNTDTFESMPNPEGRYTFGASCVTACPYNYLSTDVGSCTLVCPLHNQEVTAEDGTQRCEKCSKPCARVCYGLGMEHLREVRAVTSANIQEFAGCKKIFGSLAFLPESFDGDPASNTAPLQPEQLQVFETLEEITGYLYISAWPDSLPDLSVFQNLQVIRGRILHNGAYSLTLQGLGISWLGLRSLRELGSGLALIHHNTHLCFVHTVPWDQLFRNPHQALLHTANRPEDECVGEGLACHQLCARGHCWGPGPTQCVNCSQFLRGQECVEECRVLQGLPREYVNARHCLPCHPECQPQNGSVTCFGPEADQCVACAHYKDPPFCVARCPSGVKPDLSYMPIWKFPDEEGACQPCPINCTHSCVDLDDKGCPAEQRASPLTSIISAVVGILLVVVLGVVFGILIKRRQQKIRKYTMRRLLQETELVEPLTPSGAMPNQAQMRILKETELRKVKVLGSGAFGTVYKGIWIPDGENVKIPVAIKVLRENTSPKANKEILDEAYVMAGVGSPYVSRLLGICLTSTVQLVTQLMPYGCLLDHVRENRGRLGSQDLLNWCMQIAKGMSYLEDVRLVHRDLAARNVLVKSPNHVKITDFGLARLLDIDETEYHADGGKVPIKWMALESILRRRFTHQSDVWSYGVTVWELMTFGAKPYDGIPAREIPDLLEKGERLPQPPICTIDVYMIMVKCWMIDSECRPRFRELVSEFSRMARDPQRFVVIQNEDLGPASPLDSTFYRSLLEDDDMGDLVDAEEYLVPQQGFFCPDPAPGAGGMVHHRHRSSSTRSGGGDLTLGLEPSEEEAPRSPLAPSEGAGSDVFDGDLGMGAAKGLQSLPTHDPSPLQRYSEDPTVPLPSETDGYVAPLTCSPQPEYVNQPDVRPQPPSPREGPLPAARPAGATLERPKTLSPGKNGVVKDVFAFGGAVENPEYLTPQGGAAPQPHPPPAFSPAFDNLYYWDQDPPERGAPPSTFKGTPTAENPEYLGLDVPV
Chain of ErbB2 with Exon 20 YVMA insertion (HER2-YVMA) (P04626 other isoform, or with tags, fused parts or gaps ins YVMA behind 775): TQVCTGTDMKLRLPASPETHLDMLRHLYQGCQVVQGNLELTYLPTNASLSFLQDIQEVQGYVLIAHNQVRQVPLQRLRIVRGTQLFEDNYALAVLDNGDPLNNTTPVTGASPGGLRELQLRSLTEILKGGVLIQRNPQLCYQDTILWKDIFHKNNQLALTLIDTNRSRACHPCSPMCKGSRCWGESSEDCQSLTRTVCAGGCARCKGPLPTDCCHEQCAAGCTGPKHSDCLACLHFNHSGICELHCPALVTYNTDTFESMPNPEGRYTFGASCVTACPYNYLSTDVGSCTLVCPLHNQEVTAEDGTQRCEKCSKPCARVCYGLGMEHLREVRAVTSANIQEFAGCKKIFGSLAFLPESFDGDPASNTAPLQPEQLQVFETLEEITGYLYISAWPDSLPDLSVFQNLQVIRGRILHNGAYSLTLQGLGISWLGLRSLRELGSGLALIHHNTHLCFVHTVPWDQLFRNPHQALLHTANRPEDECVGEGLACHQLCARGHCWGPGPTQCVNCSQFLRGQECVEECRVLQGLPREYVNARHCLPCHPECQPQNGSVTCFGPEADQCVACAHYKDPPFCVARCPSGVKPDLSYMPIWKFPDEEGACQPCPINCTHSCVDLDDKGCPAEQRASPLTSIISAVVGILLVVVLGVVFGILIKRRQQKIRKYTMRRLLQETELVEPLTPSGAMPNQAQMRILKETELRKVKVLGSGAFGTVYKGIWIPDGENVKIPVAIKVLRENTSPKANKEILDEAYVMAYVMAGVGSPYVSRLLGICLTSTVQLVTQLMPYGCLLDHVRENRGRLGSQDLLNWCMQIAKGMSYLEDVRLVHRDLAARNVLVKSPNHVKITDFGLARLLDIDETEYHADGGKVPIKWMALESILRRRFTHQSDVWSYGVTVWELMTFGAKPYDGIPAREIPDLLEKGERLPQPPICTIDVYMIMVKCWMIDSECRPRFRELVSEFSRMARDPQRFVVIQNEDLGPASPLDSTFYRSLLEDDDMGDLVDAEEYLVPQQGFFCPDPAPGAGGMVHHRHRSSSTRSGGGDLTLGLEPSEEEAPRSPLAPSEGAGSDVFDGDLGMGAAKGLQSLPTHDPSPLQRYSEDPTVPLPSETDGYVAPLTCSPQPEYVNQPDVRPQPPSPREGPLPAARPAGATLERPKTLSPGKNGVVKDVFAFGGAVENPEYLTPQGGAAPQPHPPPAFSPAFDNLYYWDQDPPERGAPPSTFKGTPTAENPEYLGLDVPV

Structure (SMILES) | pIC50 (EGFR) | pIC50 [1] | efflux ratio at 2 h, 1 μM (MDR1 (P-gp) [2]) | pIC50 (ErbB2 WT) | pIC50 (EGFR wild type (EGFR WT)) | pIC50 [3] | IC50 [3] | efflux ratio at 2 h, 1 μM (BCRP) | efflux ratio at 2 h, 1 μM (MDR1 (P-gp) [4])
Cc1cc(Nc2ncnc3cnc(N(C)[C@@H]4CNC[C@@H]4F)nc23)ccc1Oc1ccc2c(c1)ncn2C [Example 94, N2-((3R,4S)-4-fluoropyrrolidin-3-yl)-N2-methyl-N8-(3-methyl-4-((1-methyl-1H-benzo[d]imidazol-5-yl)oxy)phenyl)pyrimido[5,4-d]pyrimidine-2,8-diamine] | 5.36 | 7.69 | 12 | 7.50 | ≤ 5.30 | 7.67 | – | – | –
Cc1cc(Nc2ncnc3cnc(N(C)C[C@H](C)O)nc23)ccc1Oc1ccc2c(c1)ncn2C [Example 195, (S)-1-(methyl(8-((3-methyl-4-((1-methyl-1H-benzo[d]imidazol-5-yl)oxy)phenyl)amino)pyrimido[5,4-d]pyrimidin-2-yl)amino)propan-2-ol] | 5.14 | 8.00 | 4.6 | – | ≤ 5.30 | 7.76 | – | – | –
CC1(O)CCN(c2ncc3ncnc(Nc4ccc(Oc5ccn6ncnc6c5)c(Cl)c4)c3n2)CC1 [Example 435] | 5.31 | 7.46 | 1.2 | 7.48 | ≤ 5.30 | 7.93 | – | – | –
Cc1cc(Nc2ncnc3cnc(N4CCNC(=O)C4)nc23)ccc1Oc1ccc2c(c1)ncn2C [Example 198, 4-(8-((3-methyl-4-((1-methyl-1H-benzo[d]imidazol-5-yl)oxy)phenyl)amino)pyrimido[5,4-d]pyrimidin-2-yl)piperazin-2-one] | 5.48 | 7.42 | 10.7 | 7.66 | ≤ 5.30 | 7.70 | – | – | –
Cn1cnc2cc(Oc3ccc(Nc4ncnc5cnc(N6CCN(C7COC7)CC6)nc45)cc3Cl)ccc21 [Example 485] | ≤ 5.00 | 7.95 | 1.3 | 7.11 | ≤ 5.30 | 7.66 | – | – | –
CN(c1ncc2ncnc(Nc3ccc(Oc4ccn5ncnc5c4)c(Cl)c3)c2n1)[C@H]1CCCOC1 [Example 360] | ≤ 5.00 | 7.53 | 1.3 | 7.59 | ≤ 5.30 | 7.60 | – | – | –
Cn1cnc2cc(Oc3ccc(Nc4ncnc5cnc(N6CCC6)nc45)cc3Cl)ccc21.O=C(O)C(F)(F)F [Example 148, 6-(azetidin-1-yl)-N-(3-chloro-4-((1-methyl-1H-benzo[d]imidazol-5-yl)oxy)phenyl)pyrimido[5,4-d]pyrimidin-4-amine 2,2,2-trifluoroacetate] | ≤ 5.00 | 7.89 | 1.3 | 7.47 | ≤ 5.30 | – | 24.3 nM | – | –
CN(CCC(C)(C)O)c1ncc2ncnc(Nc3ccc(Oc4ccn5ncnc5c4)c(Cl)c3)c2n1 [Example 101, 4-((8-((4-([1,2,4]triazolo[1,5-a]pyridin-7-yloxy)-3-chlorophenyl)amino)pyrimido[5,4-d]pyrimidin-2-yl)(methyl)amino)-2-methylbutan-2-ol] | ≤ 5.00 | 8.09 | 1.5 | 7.83 | ≤ 5.30 | 7.81 | – | – | –
Cc1cc(Nc2ncnc3cnc(N4CC5(CC(O)C5)C4)nc23)ccc1Oc1ccc2c(c1)ncn2C [Example 213, 2-(8-((3-methyl-4-((1-methyl-1H-benzo[d]imidazol-5-yl)oxy)phenyl)amino)pyrimido[5,4-d]pyrimidin-2-yl)-2-azaspiro[3.3]heptan-6-ol] | ≤ 5.00 | 7.47 | 2.4 | 7.47 | ≤ 5.30 | 7.71 | – | – | –
CO[C@@H]1CN(c2ncc3ncnc(Nc4ccc(Oc5ccc6c(c5)ncn6C)c(C)c4)c3n2)C[C@H]1O (racemic) [Example 107, ±(3R,4R)-4-methoxy-1-(8-((3-methyl-4-((1-methyl-1H-benzo[d]imidazol-5-yl)oxy)phenyl)amino)pyrimido[5,4-d]pyrimidin-2-yl)pyrrolidin-3-ol] | ≤ 5.00 | 7.50 | 3.2 | 7.81 | ≤ 5.30 | 7.51 | – | – | –
Cn1cnc2cc(Oc3ccc(Nc4ncnc5cnc(N6CC7C8CCC(O8)C7C6)nc45)cc3Cl)ccc21.O=C(O)C(F)(F)F (centres unmarked) [Example 149, N-(3-chloro-4-((1-methyl-1H-benzo[d]imidazol-5-yl)oxy)phenyl)-6-(octahydro-2H-4,7-epoxyisoindol-2-yl)pyrimido[5,4-d]pyrimidin-4-amine] | ≤ 5.00 | 7.58 | 1 | 6.99 | ≤ 5.30 | – | 99 nM | – | –
Cc1c(Oc2ccc3c(c2)ncn3C)ccc(Nc2ncnc3cnc(N4CC[C@](C)(O)C4)nc23)c1F [Example 97, (S)-1-(8-((2-fluoro-3-methyl-4-((1-methyl-1H-benzo[d]imidazol-5-yl)oxy)phenyl)amino)pyrimido[5,4-d]pyrimidin-2-yl)-3-methylpyrrolidin-3-ol] | ≤ 5.00 | 7.32 | 2 | 7.51 | ≤ 5.30 | 7.85 | – | – | –
Cc1cc(Nc2ncnc3cnc(N4CC[C@H](CC#N)C4)nc23)ccc1Oc1ccc2c(c1)ncn2C [Example 469] | ≤ 5.00 | 7.88 | 1.6 | 7.35 | ≤ 5.30 | 7.72 | – | – | –
Cc1cc(Nc2ncnc3cnc(N4C[C@@H](C)[C@H](O)C4)nc23)ccc1Oc1ccc2c(c1)ncn2C [Example 167, (3S,4R)-4-methyl-1-(8-((3-methyl-4-((1-methyl-1H-benzo[d]imidazol-5-yl)oxy)phenyl)amino)pyrimido[5,4-d]pyrimidin-2-yl)pyrrolidin-3-ol] | 5.04 | 7.62 | 2.8 | 7.46 | ≤ 5.30 | 7.75 | – | – | –
Cc1cc(Nc2ncnc3cnc(N4CCC(CC#N)C4)nc23)ccc1Oc1ccc2c(c1)ncn2C (centres unmarked) [Example 192, 2-(1-(8-((3-methyl-4-((1-methyl-1H-benzo[d]imidazol-5-yl)oxy)phenyl)amino)pyrimido[5,4-d]pyrimidin-2-yl)pyrrolidin-3-yl)acetonitrile] | ≤ 5.00 | 7.88 | 1.6 | 7.35 | ≤ 5.30 | 7.72 | – | – | –
Cc1cc(Nc2ncnc3cnc(N4C[C@H]5CCS(=O)(=O)[C@H]5C4)nc23)ccc1Oc1ccc2c(c1)ncn2C (racemic) [Example 92, rac-(3aR,6aR)-5-(8-((3-methyl-4-((1-methyl-1H-benzo[d]imidazol-5-yl)oxy)phenyl)amino)pyrimido[5,4-d]pyrimidin-2-yl)hexahydro-2H-thieno[2,3-c]pyrrole 1,1-dioxide] | 5.06 | 7.63 | 3.8 | 7.72 | ≤ 5.30 | 7.97 | – | – | –
Cc1cc(Nc2ncnc3cnc(N4CCCC4)nc23)ccc1Oc1ccc2c(c1)ncn2C [Example 222] | ≤ 5.00 | 7.41 | – | 7.39 | ≤ 5.30 | 7.46 | – | 1.6 | 1
Cc1cc(Nc2ncnc3cnc(N4CCO[C@H]5C[C@H]54)nc23)ccc1Oc1ccc2c(c1)ncn2C [Example 161, 6-((1S,6R)-2-oxa-5-azabicyclo[4.1.0]heptan-5-yl)-N-(3-methyl-4-((1-methyl-1H-benzo[d]imidazol-5-yl)oxy)phenyl)pyrimido[5,4-d]pyrimidin-4-amine] | 5.08 | 7.80 | – | 7.54 | ≤ 5.30 | 7.74 | – | 1.2 | 1.8
Cc1cc(Nc2ncnc3cnc(N(C)CC(F)F)nc23)ccc1Oc1ccc2c(c1)ncn2C [Example 57, N2-(2,2-difluoroethyl)-N2-methyl-N8-(3-methyl-4-((1-methyl-1H-benzo[d]imidazol-5-yl)oxy)phenyl)pyrimido[5,4-d]pyrimidine-2,8-diamine] | 5.18 | 8.03 | – | 7.42 | ≤ 5.30 | 7.52 | – | 1.4 | 1.1
